Measurements published in BindingDB's records for doi:10.7270/Q2XP773S (n/a, 1996).

Molecular target: Histamine H2 receptor (Cavia porcellus, UniProt P47747)
Test: ChEBML_85064
From the text: Histamine H2 receptor antagonistic activity

Histamine H2 receptor, sequence (P47747 whole entry): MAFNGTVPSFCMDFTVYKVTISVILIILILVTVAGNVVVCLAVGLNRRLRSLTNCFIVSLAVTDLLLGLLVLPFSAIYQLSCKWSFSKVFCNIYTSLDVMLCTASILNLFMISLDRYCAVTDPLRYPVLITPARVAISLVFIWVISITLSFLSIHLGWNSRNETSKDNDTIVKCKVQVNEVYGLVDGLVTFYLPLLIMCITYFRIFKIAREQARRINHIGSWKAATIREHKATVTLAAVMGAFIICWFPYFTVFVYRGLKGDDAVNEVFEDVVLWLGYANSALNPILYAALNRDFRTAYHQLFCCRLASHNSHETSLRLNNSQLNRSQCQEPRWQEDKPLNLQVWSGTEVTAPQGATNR

Row | IC50 [nM] | SMILES
1 | 1140 | COCC/N=c1\c(O)c(O)c1=NC/C=C\COc1csc(CN2CCCCC2)c1
2 | 809 | CN(C)CC/N=c1\c(O)c(O)c1=NC/C=C\COc1csc(CN2CCCCC2)c1
3 | 684 | CN(C)Cc1cc(OC/C=C\CN=c2c(O)c(O)c2=N)cs1
4 | 1830 | C/N=c1\c(O)c(O)c1=NC/C=C\COc1csc(CN2CCCCC2)c1
5 | 1930 | CC(C)/N=c1\c(O)c(O)c1=NC/C=C\COc1csc(CN2CCCCC2)c1
